# Measurements reported in patent US20260001853A1, “ASCORBIC ACID DERIVATIVE OR SALT THEREOF, AND COSMETIC THEREOF” (SEIWA KASEI COMPANY, LIMITED, priority 2022, published 2026).
# Legend:
# [1] = system: Normal human dermal fibroblasts; test: Collagen production promoting effect (ELISA of supernatant); type: cell-based; details: amount of collagen produced, % with control group taken as 100%; sample at 10 mmol/L or less, 48 hours, N=3
# Procedure: Normal human dermal fibroblasts were prepared in D-MEM containing 5% (v/v) fetal bovine serum to a cell density of […] cells/well, and pre incubated on a 96-well plate for 24 hours. After removing the medium, samples prepared to a predetermined concentration in D-MEM containing 5% (v/v) fetal bovine serum were added to each well and cultured for 48 hours. After completion of the culture, the amount of free collagen in the supernatant was quantified by ELISA method. The measurement was performed with N=3.
# (§1) The amount of collagen produced when the samples were measured at a concentration of 10 mmol/L or less was compared with that of the control group, and the results (% values when the control group is taken as 100%) are shown in Tables 15 to 17 based on the following criteria. • <100%: ± • 100-120%: + • 120%: ++
# B16 melanoma 4A5 cells = test: Melanin production inhibitory effect (theophylline-induced melanin production); type: cell-based, mouse; details: melanin production inhibition rate, sample at a concentration of 10 mM or less, 3 days culture, theophylline 1 mmol/L, N=4
# Procedure: As a test of the whitening effect, the effect on theophylline-induced melanin production in B16 melanoma 4A5 cells was evaluated for the ascorbic acid derivatives of the present invention according to the following procedure. A similar evaluation was also performed for a known ascorbic acid derivative for comparison. The results are shown in Tables 9 to 11. • (1) B16 mouse melanoma 4A5 cells were seeded in a 48-well plate at a cell density of 8.0×10^3 cells/well. • (2) After culturing for 24 hours in Dulbecco's modified Eagle's medium (manufactured by SIGMA, hereinafter abbreviated as “D-MEM”) containing 10% fetal bovine serum, the medium was replaced with D-MEM containing 10% fetal bovine serum containing theophylline (final concentration 1 mmol/L) and a specified concentration of a sample. • (3) After culturing for 3 days in the presence of the sample, the medium was removed using an aspirator, distilled water was added, and the cells were disrupted by ultrasonication. • (4) The amount of protein was then quantified using a BCA protein assay kit (manufactured by PIERCE), and the amount of melanin produced was measured by an alkali solubilization method. Sodium hydroxide was added to the cell lysate to a final concentration of 1 mol/L, and the solution was dissolved by heating (60° C., 30 minutes), thereafter the absorbance at 405 nm was measured using a microplate reader. The amount of melanin was calculated from a calibration curve prepared using synthetic melanin (SIGMA) as a standard. The amount of melanin per unit protein was calculated by dividing the amount of melanin by the amount of protein. • (5) The melanin production inhibition rate was calculated using the following formula.
# [In the formula, A represents the amount of melanin per unit protein (g/g) when the sample was added, B represents the amount of melanin per unit protein (g/g) in the normal group, and C represents the amount of melanin per unit protein (g/g) in the control group.]
# The melanin production inhibition rate when the sample was measured at a concentration of 10 mM or less is expressed as follows. The measurement was performed with N=4. • <20%: ± • 20-40%: + • 40-60%: ++ • 60-100%: +++
# [2] = Stability test (residual rate by HPLC, odor, coloring); type: physicochemical; details: 1% aqueous solution; for Coloring / Odor: total score of 10 panelists
# Procedure: With a dilute potassium hydroxide aqueous solution, 1% aqueous solution of each test sample was adjusted to pH 6, placed in a 50 mL screw tube, sealed, […], and then subjected to HPLC measurement (using a liquid chromatograph manufactured by Shimadzu Corporation) to determine the residual rate from the peak area. The residual rate, odor, and coloring degree were evaluated according to the following methods and criteria.
# Residual rate: • ⊚: 90% or more • ◯: 80% or more, less than 90% • Δ: 60% or more, less than 80% • x: 20% or more, less than 60% • xx: Less than 20%
# Evaluation was made by 10 panelists according to the following criteria. • 3: Almost odorless • 2: There is a slight strange odor. • 1: A strong odor is detected.
# Based on the evaluation results, the following classification was made: • ⊚: Total score of 10 panelists is 25 or more • ◯: Total score of 10 panelists is 20-24 • Δ: Total score of 10 panelists is 16-19 • x: The total score of 10 panelists is 15 or less
# Evaluation was made by 10 panelists according to the following criteria. • 3: Almost no change compared to immediately after preparation. • 2: Color changes compared to immediately after preparation. • 1: Strongly colored compared to immediately after preparation.
# Based on the evaluation results, the following classification was made: • ◯: Total score of 10 panelists is 25 or more • Δ: Total score of 10 panelists is 16-24 • x: The total score of 10 panelists is 15 or less
# [3] = system: Normal human dermal fibroblasts (NHDF); test: Hyaluronic acid production promoting effect (ELISA of supernatant); type: cell-based; details: amount of hyaluronic acid produced, % with control group taken as 100%; sample at 10 mmol/L or less, 48 hours, N=3
# Procedure: Normal human dermal fibroblasts (NHDF) were prepared in D-MEM containing 5% (v/v) fetal bovine serum to a cell density of 2.5× 10^4 cells/well, and then pre-incubated on a 96-well plate for 24 hours. After removing the medium, samples prepared in serum-free D-MEM were added to each well and cultured for 48 hours. After the culture was completed, the amount of hyaluronic acid in the supernatant was quantified by ELISA method. The measurement was performed with N=3.
# as §1, with “of hyaluronic acid” for “of collagen”, “Tables 18” for “Tables 15”, “to 20” for “to 17”, “• 120-150%:” for “• 120%:”, “++ • 150%: +++” for “++”
# [4] = pH 6, stored at 50° C., four weeks later
# [5] = pH 6, stored at 50° C., two weeks later
Compound,Collagen production promoting effect [1],Melanin production inhibition effect (B16 melanoma 4A5 cells),"Residual rate ([2]; pH 6, 50° C., initial)","Coloring ([2]; pH 6, 50° C., initial)","Odor ([2]; pH 6, 50° C., initial)","Residual rate [2, 4]","Coloring [2, 4]","Odor [2, 4]","Residual rate [2, 5]","Coloring [2, 5]","Odor [2, 5]",Hyaluronic acid production promoting effect [3]
"CCCCCCCCCCCCOCC(O)COC1=C(OCC(C)(C)O)C(C(O)CO)OC1=O (stereo not drawn) [Synthesis Example 31, 2-O-(2-hydroxy-3-O-dodecyl)-3-O-(2-hydroxyisobutyl) ascorbic acid]",++ (120%: ++),+ (20-40%: +),⊚ (⊚: 90% or more),◯ (◯: Total score of 10 panelists is 25 or more),⊚ (⊚: Total score of 10 panelists is 25 or more),⊚ (⊚: 90% or more),◯ (◯: Total score of 10 panelists is 25 or more),◯ (◯: Total score of 10 panelists is 20-24),⊚ (⊚: 90% or more),◯ (◯: Total score of 10 panelists is 25 or more),⊚ (⊚: Total score of 10 panelists is 25 or more),++ (120-150%: ++)
"CCCCCCCCC(O)COC1=C(OCC(C)(C)O)C(=O)O[C@@H]1[C@@H](O)CO (stereo partly drawn) [Synthesis Example 36, 2-O-(2-hydroxyisobutyl)-3-O-(2-hydroxydecyl) ascorbic acid]",+ (100-120%: +),++ (40-60%: ++),⊚ (⊚: 90% or more),⊚,◯ (◯: Total score of 10 panelists is 20-24),⊚ (⊚: 90% or more),◯ (◯: Total score of 10 panelists is 25 or more),◯ (◯: Total score of 10 panelists is 20-24),⊚ (⊚: 90% or more),◯ (◯: Total score of 10 panelists is 25 or more),◯ (◯: Total score of 10 panelists is 20-24),++ (120-150%: ++)
"CCCCCCCCCCCCCCC(O)COC1=C(OCC(C)(C)O)C(=O)O[C@@H]1[C@@H](O)CO (stereo partly drawn) [Synthesis Example 37, 2-O-(2-hydroxyisobutyl)-3-O-(2-hydroxyhexadecyl) ascorbic acid]",+ (100-120%: +),+ (20-40%: +),⊚ (⊚: 90% or more),◯ (◯: Total score of 10 panelists is 25 or more),⊚ (⊚: Total score of 10 panelists is 25 or more),⊚ (⊚: 90% or more),◯ (◯: Total score of 10 panelists is 25 or more),◯ (◯: Total score of 10 panelists is 20-24),⊚ (⊚: 90% or more),◯ (◯: Total score of 10 panelists is 25 or more),◯ (◯: Total score of 10 panelists is 20-24),++ (120-150%: ++)
"CC(C)(O)COC1=C(OCC(O)c2ccccc2)C(C(O)CO)OC1=O (stereo not drawn) [Synthesis Example 38, 2-O-(2-hydroxyisobutyl)-3-O-(2-hydroxyethylbenzene) ascorbic acid]",++ (120%: ++),++ (40-60%: ++),⊚ (⊚: 90% or more),⊚,◯ (◯: Total score of 10 panelists is 20-24),⊚ (⊚: 90% or more),◯ (◯: Total score of 10 panelists is 25 or more),◯ (◯: Total score of 10 panelists is 20-24),⊚ (⊚: 90% or more),◯ (◯: Total score of 10 panelists is 25 or more),◯ (◯: Total score of 10 panelists is 20-24),++ (120-150%: ++)
"CC(O)COC1=C(OCC(C)(C)O)[C@@H]([C@@H](O)CO)OC1=O (stereo partly drawn) [Synthesis Example 39, 3-O-(2-hydroxyisobutyl)-2-O-(2-hydroxypropyl) ascorbic acid]",+ (100-120%: +),+++ (60-100%: +++),⊚ (⊚: 90% or more),⊚,⊚ (⊚: Total score of 10 panelists is 25 or more),⊚ (⊚: 90% or more),◯ (◯: Total score of 10 panelists is 25 or more),◯ (◯: Total score of 10 panelists is 20-24),⊚ (⊚: 90% or more),◯ (◯: Total score of 10 panelists is 25 or more),◯ (◯: Total score of 10 panelists is 20-24),+++ (150%: +++)
"CCC(O)COC1=C(OCC(C)(C)O)[C@@H]([C@@H](O)CO)OC1=O (stereo partly drawn) [Synthesis Example 40, 3-O-(2-hydroxyisobutyl)-2-O-(2-hydroxybutyl) ascorbic acid]",++ (120%: ++),++ (40-60%: ++),⊚ (⊚: 90% or more),◯ (◯: Total score of 10 panelists is 25 or more),◯ (◯: Total score of 10 panelists is 20-24),⊚ (⊚: 90% or more),◯ (◯: Total score of 10 panelists is 25 or more),◯ (◯: Total score of 10 panelists is 20-24),⊚ (⊚: 90% or more),◯ (◯: Total score of 10 panelists is 25 or more),◯ (◯: Total score of 10 panelists is 20-24),++ (120-150%: ++)
"CCCCCCCCC(O)COC1=C(OCC(C)(C)O)[C@@H]([C@@H](O)CO)OC1=O (stereo partly drawn) [Synthesis Example 41, 3-O-(2-hydroxyisobutyl)-2-O-(2-hydroxydecyl) ascorbic acid]",+ (100-120%: +),++ (40-60%: ++),⊚ (⊚: 90% or more),◯ (◯: Total score of 10 panelists is 25 or more),◯ (◯: Total score of 10 panelists is 20-24),⊚ (⊚: 90% or more),◯ (◯: Total score of 10 panelists is 25 or more),◯ (◯: Total score of 10 panelists is 20-24),⊚ (⊚: 90% or more),◯ (◯: Total score of 10 panelists is 25 or more),◯ (◯: Total score of 10 panelists is 20-24),++ (120-150%: ++)
